One assay has as its system p53 protein levels. Kind of assay: p53 staining of spleens from p53 wild type mice after IP injection of peptide. The class given is in vivo. The conditions noted are these: normal p53 wild type mice, 40 mg/kg IP, spleens harvested 5 hours post injection, late- vs early-eluting isomer. The method, then: FIG. 5. Spleen samples of wildtype-p53 mice harvested 5 hours after intraperitoneal injection with either DMSO (vehicle) or the early or late eluting isomer of stapled peptides VIP82, VIP115 or VIP116. […] A subset of the peptide analogues was subsequently assessed for their ability to stabilise p53 protein levels in proliferating cells. In particular, lysine-containing peptides were chosen due to their enhanced solubility in biological buffers. Normal p53 wild type mice were administered with either vehicle (DMSO) or 40 mg/kg of peptide via IP. Spleens were then harvested 5 hours post injection and histological samples were processed for p53 staining (FIG. 5).

Another assay relates to p53 stabilization. Kind of assay: p53 IHC staining of spleen and tumour from C57BL/6 mice bearing B16F10 melanoma allograft. It counts as in vivo. The note with it: C57BL/6 mice with B16F10 melanoma allograft, 40 mg/kg intraperitoneal, harvested 6 hours post injection, listed as VIP116 late-eluting isomer. The protocol:
FIG. 6. Photomicrographs of (A) spleen and (B) tumour samples from C57BL/6 mice after treatment with DMSO vehicle or p53-stabilising stapled peptide isomers VIP116 (both early-eluting and late-eluting isomers) and ATSP-7041 (late-eluting isomer only).
The stapled peptides VIP116 (both early-eluting and late-eluting isomers) and ATSP-7041 (late-eluting isomer) were injected into C57BL/6 mice bearing an allograft tumour (B16F10 melanoma cells) via intraperitoneal injection at a dose of 40 mg/kg. The spleen and tumour were both harvested from the mice 6 hours post injection. The p53 stabilization was detected and visualised in harvested tissue samples by p53 IHC staining (FIG. 6). A vehicle (2% DMSO in HBSS buffer) was used as a control.

Entries after “also recorded” stand apart in the source; their conditions may differ. Bridge positions count the residues as written; N and C are the ends. Square brackets hold non-standard residues; d marks the D form. Peptide text beside a SMILES is read from it. R8 = C=CCCCCCC[C@@](C)(N)C(=O)O; S5 = C=CCCC[C@](C)(N)C(=O)O; Ahx = NCCCCCC(=O)O

In the case of `CC(=O)N[C@@H](CCCCN)C(=O)N[C@@H](CCCCN)C(=O)NCCCCCC(=O)N[C@H](C(=O)N[C@@H](CO)C(=O)N[C@@H](Cc1ccccc1)C(=O)N[C@]1(C)CCCCCC/C=C/CCC[C@@](C)(C(=O)N[C@@H](CCC(=O)O)C(=O)N[C@@H](CC(N)=O)C(=O)N[C@@H](Cc2ccccc2)C(N)=O)NC(=O)[C@H](CC(C)C)NC(=O)[C@H](CC(C)C)NC(=O)[C@H](C)NC(=O)[C@H](Cc2c[nH]c3ccccc23)NC(=O)[C@H](Cc2ccc(O)cc2)NC(=O)[C@H](CCC(=O)O)NC1=O)[C@@H](C)O` [VIP82-Late] (Ac-KK[Ahx]TSF[R8]EYWALL[S5]ENF-NH2; staple (E) 7-14), the “p53 protein level / expression in spleen (p53 staining)” value (from here on “p53 protein level / expression”) is recorded as “higher in the late eluting isomer” with p53 protein levels (listed as VIP82 late eluting isomer, 40 mg/kg) and “higher concentration of p53 in mouse tissues compared to the early-eluting isomer” in the assay with p53 protein levels (listed as VIP82 late-eluting isomer, 40 mg/kg).

Take `CC(=O)N[C@@H](CCCCN)C(=O)N[C@@H](CCCCN)C(=O)N[C@@H](CCCCN)C(=O)NCCCCCC(=O)N[C@H](C(=O)N[C@@H](CO)C(=O)N[C@@H](Cc1ccccc1)C(=O)N[C@]1(C)CCCCCC/C=C/CCC[C@@](C)(C(=O)N[C@@H](CCC(=O)O)C(=O)N[C@@H](CC(N)=O)C(=O)N[C@@H](Cc2ccccc2)C(N)=O)NC(=O)[C@H](CC(C)C)NC(=O)[C@H](CC(C)C)NC(=O)[C@H](C)NC(=O)[C@H](Cc2c[nH]c3ccccc23)NC(=O)[C@H](Cc2ccc(O)cc2)NC(=O)[C@H](CCC(=O)O)NC1=O)[C@@H](C)O` [VIP115-Late] (Ac-KKK[Ahx]TSF[R8]EYWALL[S5]ENF-NH2; staple (E) 8-15): the “p53 protein level / expression” value in the assay on p53 protein levels (listed as VIP115 late eluting isomer, 40 mg/kg) was “higher in the late eluting isomer”; with p53 protein levels (listed as VIP115 late-eluting isomer, 40 mg/kg), “higher concentration of p53 in mouse tissues compared to the early-eluting isomer”.

As to `CC(=O)N[C@@H](CCCCN)C(=O)NCCCCCC(=O)N[C@H](C(=O)N[C@@H](CO)C(=O)N[C@@H](Cc1ccccc1)C(=O)N[C@]1(C)CCCCCC/C=C/CCC[C@@](C)(C(=O)N[C@@H](CCC(=O)O)C(=O)N[C@@H](CC(N)=O)C(=O)N[C@@H](Cc2ccccc2)C(N)=O)NC(=O)[C@H](CC(C)C)NC(=O)[C@H](CC(C)C)NC(=O)[C@H](C)NC(=O)[C@H](Cc2c[nH]c3ccccc23)NC(=O)[C@H](Cc2ccc(O)cc2)NC(=O)[C@H](CCC(=O)O)NC1=O)[C@@H](C)O` [VIP116-Late], the “p53 activation response (p53 IHC staining) in spleen and tumour” value with p53 stabilization is “higher p53 activation response in both spleen and tumour samples; also recorded: more potent than the late-eluting isomer of ATSP-7041”. Further, the “p53 protein level / expression” value in the assay on p53 protein levels was “as active as the early-isomer”.

(Values after patent publication US20210122781A1, “STAPLED PEPTIDES” (Agency for Science, Technology and Research, priority 2017, published 2021).)
